Experiment [1] has as its target TEAD1-GFP in HEK293A cells (Homo sapiens (Human), UniProt P28347). The experiment in a line: TEAD1 protein abundance flow cytometry assay in HEK293A. It counts as cell-based. Particulars: HEK293A TEAD1-GFP-CHYSEL-mCherry sensor cells, 24 h, GFP signal by flow cytometry. An outline of the steps: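 HEK293A stably expressing bicistronic TEAD1-GFP-CHYSEL-mCherry treated 24 h at 37° C with 10-point 3-fold series from 10 μM (0.1% DMSO), duplicate. Median GFP of 2,500 single cells by flow cytometry, normalized to parental HEK293A (0%) and DMSO (100%); DC50 from concentration-response curves.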

For experiment [2], the system named is NCI-H2052 Tet-On shYAP_2371 pLenti6 MCAT_Luc cells. The experiment is described as follows: Proliferation assay (resazurin/AlamarBlue), NCI-H2052. Particulars: NCI-H2052, 72 hours. In kind it is cell-based. For orientation: The colour change of resazurin is a common sign of viable cells or microbes.
The subject of the next experiment is MKN-45/Ubc-luc cells. The experiment in a line: Proliferation assay (resazurin/AlamarBlue), MKN-45. It counts as cell-based. Particulars: MKN-45, 72 hours. An outline of the steps: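 MKN-45 cells carrying constitutive Ubc-driven luciferase reporter, treated the day after seeding with eleven 2-fold dilutions (0.1% DMSO) for 72 h at 37 °C. Viability by resazurin, referenced to day-0 plate; GI50 from % growth (100 none, 0 stasis, −100 kill) and residual viability at top concentration.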

Experiment [3] has as its system MKN-45/Ubc-luc cells (unspecific inhibition of luciferase expression or activity). The experiment is described as follows: Reporter gene assay specificity control (Ubc-Luc), MKN-45. Particulars: MKN-45/Ubc-luc specificity control, 24 hrs. In kind it is cell-based. An outline of the steps: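 MKN-45 cells stably carrying a ubiquitin C promoter–firefly luciferase construct, treated the day after seeding with eleven 2-fold compound dilutions (0.1% DMSO final) for 24 hrs at 37° C. Luminescence read 5 min after Steady Glo addition; cell-free background subtracted, as a control for nonspecific luciferase inhibition.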

The target of experiment [4] is Avi-humanTEAD4^217-434 / Cy5 labeled humanYAP^60-100 (Homo sapiens (Human), UniProt Q15561). The experiment in a line: In-vitro biochemical TR-FRET assay (TEAD4/YAP). It counts as binding. To be noted: 1 h at room temperature. (TR-FRET usually uses a lanthanide donor and a delayed reading to cut background.)
Experiment [5] relates to SF268-MCAT_Luc_dox-i-shYAPLevy (Clone 13) cells. The experiment is described as follows: Proliferation assay (resazurin/AlamarBlue), SF268. In kind it is cell-based. To be noted: SF268, 72 hours.
Experiment [6] deals with YAP-dependent transcription in NCI-H2052 Tet-On shYAP_2371 pLenti6 MCAT_Luc cells. The experiment is described as follows: YAP reporter gene activity assay (MCAT-Luc), NCI-H2052. It counts as cell-based. Particulars: 24 hrs. (In general: Reporter assays use an easily measured gene product as a stand-in for the process of interest.)
For experiment [7], the system named is YAP-dependent transcription in SF268-MCAT_Luc_dox-i-shYAPLevy (Clone 13) cells. The experiment is described as follows: YAP reporter gene activity assay (MCAT-Luc), SF268. It counts as cell-based. To be noted: SF268 MCAT_Luc, 24 hrs.

Drawing on patent publication US20240382600A1, “BIFUNCTIONAL DEGRADERS COMPRISING A TEAD BINDER” (Novartis AG, priority 2021, published 2024), this text covers DC50, GI50 and IC50 for six compounds.

The GI50 is the concentration at which growth is held to half of that of the control. A high value points to less potent growth inhibition. As a reminder, the IC50 is the concentration that inhibits the measured activity by half. A lower IC50 goes with higher potency.

Chain of TEAD1-GFP in HEK293A cells (P28347 whole entry): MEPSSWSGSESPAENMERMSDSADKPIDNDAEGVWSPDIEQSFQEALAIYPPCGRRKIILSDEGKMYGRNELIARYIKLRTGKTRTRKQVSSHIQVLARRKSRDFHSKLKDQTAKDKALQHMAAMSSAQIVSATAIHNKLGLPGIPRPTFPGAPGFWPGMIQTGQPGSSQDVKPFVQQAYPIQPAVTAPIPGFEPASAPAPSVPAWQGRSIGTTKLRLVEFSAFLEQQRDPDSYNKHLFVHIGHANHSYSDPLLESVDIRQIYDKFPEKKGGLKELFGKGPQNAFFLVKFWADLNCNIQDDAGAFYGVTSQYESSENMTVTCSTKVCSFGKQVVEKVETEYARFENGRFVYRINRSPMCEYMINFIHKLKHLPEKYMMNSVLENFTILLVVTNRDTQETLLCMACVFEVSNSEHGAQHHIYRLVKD
Chain of Avi-humanTEAD4^217-434 / Cy5 labeled humanYAP^60-100 (Q15561 217-434): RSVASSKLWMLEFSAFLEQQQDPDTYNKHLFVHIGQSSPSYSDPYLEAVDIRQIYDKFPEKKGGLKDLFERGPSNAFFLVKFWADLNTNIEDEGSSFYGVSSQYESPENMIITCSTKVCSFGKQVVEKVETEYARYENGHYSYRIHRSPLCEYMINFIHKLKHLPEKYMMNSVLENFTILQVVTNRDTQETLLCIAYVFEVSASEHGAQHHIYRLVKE

In experiment [1], `COc1ccc(C(N)=O)c(-c2c(Cl)c(F)cc3c2[C@H](C)[C@@](CN[C@H]2CC[C@H](C(=O)N[C@H]4CC[C@H](NC(=O)COc5cc(-c6scnc6C)ccc5CNC(=O)[C@@H]5C[C@@H](O)CN5C(=O)[C@@H](NC(=O)C5(F)CC5)C(C)(C)C)CC4)CC2)(c2ccccc2)O3)c1F` (atropisomer, axis not shown) [Example 39, (2S,4R)-N-(2-(2-(((1S,4S)-4-((1S,4R)-4-((((2S,3S,4S)-4-(6-carbamoyl-2-fluoro-3-methoxyphenyl)-5-chloro-6-fluoro-3-methyl-2-phenyl-2,3-dihydrobenzofuran-2-yl)methyl)amino)cyclohexane-1-carboxamido)cyclohexyl)amino)-2-oxoethoxy)-4-(4-methylthiazol-5-yl)benzyl)-1-((S)-2-(1-fluorocyclopropane-1-carboxamido)-3,3-dimethylbutanoyl)-4-hydroxypyrrolidine-2-carboxamide] showed a DC50 of 0.009 µM. In addition, the GI50 was 0.17 µM in experiment [2] (Homo sapiens); more than 2 µM with MKN-45/Ubc-luc cells (Homo sapiens); 0.063 µM in experiment [5] (Homo sapiens, SF-268). Further, the IC50 in experiment [3] (Homo sapiens) was more than 2 µM; in experiment [4], 0.003 µM; in experiment [6] (Homo sapiens), 0.056 µM; in experiment [7] (Homo sapiens, SF-268), 0.0018 µM.

For the compound `COc1ccc(C(N)=O)c(-c2c(Cl)c(F)cc3c2[C@H](C)[C@@](CN[C@H]2CC[C@H](C(=O)NCCOCCOCCOCCNC(=O)COc4cc(-c5scnc5C)ccc4CNC(=O)[C@@H]4C[C@@H](O)CN4C(=O)[C@@H](NC(=O)C4(F)CC4)C(C)(C)C)CC2)(c2ccccc2)O3)c1F` (atropisomer, axis not shown) [Example 40, (2S,4R)-N-(2-((1-((1S,4r)-4-((((2S,3S,4S)-4-(6-carbamoyl-2-fluoro-3-methoxyphenyl)-5-chloro-6-fluoro-3-methyl-2-phenyl-2,3-dihydrobenzofuran-2-yl)methyl)amino)cyclohexyl)-1,15-dioxo-5,8,11-trioxa-2,14-diazahexadecan-16-yl)oxy)-4-(4-methylthiazol-5-yl)benzyl)-1-((S)-2-(1-fluorocyclopropane-1-carboxamido)-3,3-dimethylbutanoyl)-4-hydroxypyrrolidine-2-carboxamide], the DC50 in experiment [1] stood at 0.02 µM. For the same compound, the GI50 in experiment [2] (Homo sapiens) was 0.41 µM; in the experiment with MKN-45/Ubc-luc cells (Homo sapiens), more than 20 µM; in experiment [5] (Homo sapiens, SF-268), 1.86 µM. Also, the IC50 was more than 20 µM in experiment [3] (Homo sapiens); 0.0047 µM in experiment [4]; 0.16 µM in experiment [6] (Homo sapiens); 0.047 µM in experiment [7] (Homo sapiens, SF-268).

In the case of `COc1ccc(C(N)=O)c(-c2c(Cl)c(F)cc3c2[C@H](C)[C@@](CN[C@H]2CC[C@H](C(=O)N4CCC(OC5CCN(C(=O)CCC(=O)N[C@H](C(=O)N6C[C@H](O)C[C@H]6C(=O)N[C@@H](C)c6ccc(-c7scnc7C)cc6)C(C)(C)C)CC5)CC4)CC2)(c2ccccc2)O3)c1F` (atropisomer, axis not shown) [Example 41, (2S,4R)-1-((S)-2-(4-(4-((1-((1S,4r)-4-((((2S,3S,4S)-4-(6-carbamoyl-2-fluoro-3-methoxyphenyl)-5-chloro-6-fluoro-3-methyl-2-phenyl-2,3-dihydrobenzofuran-2-yl)methyl)amino)cyclohexane-1-carbonyl)piperidin-4-yl)oxy)piperidin-1-yl)-4-oxobutanamido)-3,3-dimethylbutanoyl)-4-hydroxy-N-((S)-1-(4-(4-methylthiazol-5-yl)phenyl)ethyl)pyrrolidine-2-carboxamide], in experiment [1], the DC50 turned out to be 0.027 µM. Moreover, the GI50 in experiment [2] (Homo sapiens) was 0.27 µM; in the experiment with MKN-45/Ubc-luc cells (Homo sapiens), more than 2 µM; in experiment [5] (Homo sapiens, SF-268), 0.31 µM. Besides, the IC50 in experiment [3] (Homo sapiens) is more than 2 µM; in experiment [4], 0.0023 µM; in experiment [6] (Homo sapiens) it was 0.079 µM; in experiment [7] (Homo sapiens, SF-268) it was 0.011 µM.

On to `CN[C@@H](C)C(=O)N[C@H](C(=O)N1C[C@@H](NCC(=O)N[C@H]2CC[C@H](NC(=O)[C@H]3CC[C@H](NC[C@]4(c5ccccc5)Oc5cc(F)c(Cl)c(-c6c(C(N)=O)ccc(OC)c6F)c5[C@@H]4C)CC3)CC2)C[C@H]1C(=O)N[C@@H]1CCCc2ccccc21)C1CCCCC1` (atropisomer, axis not shown) [Example 44, (2S,4S)-4-((2-(((1S,4S)-4-((1S,4S)-4-((((2S,3S,4S)-4-(6-carbamoyl-2-fluoro-3-methoxyphenyl)-5-chloro-6-fluoro-3-methyl-2-phenyl-2,3-dihydrobenzofuran-2-yl)methyl)amino)cyclohexane-1-carboxamido)cyclohexyl)amino)-2-oxoethyl)amino)-1-((S)-2-cyclohexyl-2-((S)-2-(methylamino)propanamido)acetyl)-N-((R)-1,2,3,4-tetrahydronaphthalen-1-yl)pyrrolidine-2-carboxamide], for which, in experiment [1], the DC50 worked out at 2.8 µM. Besides, the GI50 in experiment [2] (Homo sapiens) is 0.67 µM; with MKN-45/Ubc-luc cells (Homo sapiens), more than 2 µM; in experiment [5] (Homo sapiens, SF-268), 1.3 µM. For the same compound, the IC50 in experiment [3] (Homo sapiens) was more than 2 µM; in experiment [4] it was 0.0023 µM; in experiment [6] (Homo sapiens), 0.63 µM; in experiment [7] (Homo sapiens, SF-268) it was 0.0019 µM.

Consider `COc1ccc(C(N)=O)c(-c2c(Cl)c(F)cc3c2[C@H](C)[C@@](CN[C@H]2CC[C@H](C(=O)NCCCCCc4cccc5c4CN(C4CCC(=O)NC4=O)C5=O)CC2)(c2ccccc2)O3)c1F` (stereo partly drawn) [Example 31, 2-((2S,3S,4S)-5-chloro-2-((((1r,4S)-4-((5-(2-(2,6-dioxopiperidin-3-yl)-1-oxoisoindolin-4-yl)pentyl)carbamoyl)cyclohexyl)amino)methyl)-6-fluoro-3-methyl-2-phenyl-2,3-dihydrobenzofuran-4-yl)-3-fluoro-4-methoxybenzamide], for which the DC50 in experiment [1] is 0.0006 µM. Moreover, the GI50 in experiment [2] (Homo sapiens) was 0.0066 µM; in the experiment with MKN-45/Ubc-luc cells (Homo sapiens) it was more than 20 µM; in experiment [5] (Homo sapiens, SF-268), 0.019 µM. For the same compound, the IC50 is more than 20 µM in experiment [3] (Homo sapiens); 0.0018 µM in experiment [4]; 0.0019 µM in experiment [6] (Homo sapiens); 0.00028 µM in experiment [7] (Homo sapiens, SF-268).

In experiment [1], “N-(4-(1-((1S,4r)-4-((((2S,3S,4S)-4-(6-carbamoyl-2-fluoro-3-methoxyphenyl)-5-chloro-6-fluoro-3-methyl-2-phenyl-2,3-dihydrobenzofuran-2-yl)methyl)amino)cyclohexane-1-carbonyl)piperidin-4-yl)butyl)-3-(2,4-dioxotetrahydropyrimidin-1(2H)-yl)-4-methoxybenzamide [Example 18]” had a DC50 of 0.002 µM. The GI50 in experiment [2] is 0.027 µM; in the experiment on MKN-45/Ubc-luc cells, more than 2 µM; in experiment [5], 0.06 µM. The IC50 was more than 2 µM in experiment [3], 0.0039 µM in experiment [4], 0.0099 µM in experiment [6] and 0.0013 µM in experiment [7].
